Legend:
[1] = Fluorescence quantum yield of photosensitizers; format: physicochemical; details: in MeOH at 648 nm after 410 nm excitation
Method: The UV-visible absorption spectra were recorded on an Uvikon 930 spectrophotometer and fluorescence spectra on a Perkin-Elmer LS50 spectrofluorometer.

RAW macrophages = experiment: Phototoxicity in RAW macrophages, irradiation at 652 nm, MTT test; format: cell-based; details: RAW cells, 10 μM, 20 mW/cm^2, MTT 24 h after irradiation
Method: RAW cells were grown in 96-well cell culture plates (Corning, N.Y.) until 75% confluent in DMEM medium containing 10% FCS. The culture media were replaced with fresh medium containing the Ru, Os or Rh-porphyrin analogs at 10 μM (minimal dark cytotoxicity) and the cells were exposed overnight to the compounds. Then, the media were replaced with DMEM without phenol red containing 10% FCS and cells were irradiated at 652 nm using a diode laser (Applied Optronics, South Plainfield, N.J.) coupled to a frontal diffuser (Medlight SA, Ecublens, Switzerland), at an irradiance of 20 mW/cm^2. Experiments were performed in triplicate wells. Cell viability was evaluated 24 h later using the MTT test. Briefly, 3-(4,5-dimethyl-2-thiazoyl)-2,5-diphenyltetrazolium bromide (MTT, Merck) was added at 250 μg/mL and incubation was continued for 2 h, then the cell culture supernatants were removed. The cell layers were dissolved in iPrOH/0.04N HCl and the absorbance measured at 540 nm in a multiwell-plate reader (iEMS Reader MF, Labsystems, Bioconcept, Switzerland) and compared to the values of control cells incubated with the nanoparticles but without laser irradiation.

## C1=Cc2nc1c(-c1ccncc1)c1ccc([nH]1)c(-c1ccncc1)c1nc(c(-c3ccncc3)c3ccc([nH]3)c2-c2ccncc2)C=C1 [TPP, 5,10,15,20-tetra(4-pyridyl)porphyrin, reference compound]
[1]
  fluorescence quantum yield φf: 10.4%

## [Ir4(η^5-Cp*)4(TPP)Cl8] [Compound 8]
[1]
  fluorescence quantum yield φf: 4.5%

## [OS4(η^6-p-Pr^iC6H4Me)4(TPP)Cl8] [Compound 6]
[1]
  fluorescence quantum yield φf: 7.0%

## [Rh4(η^5-Cp*)4(TPP)Cl8] [Compound 7]
[1]
  fluorescence quantum yield φf: 7.9%

## [Ru4(η^6-1,4-C6H4(COOEt)2)4(TPP)Cl8] [Compound 5]
[1]
  fluorescence quantum yield φf: 7.2%

## [Ru4(η^6-C6H5CH3)4(TPP)Cl8] [Compound 2]
[1]
  fluorescence quantum yield φf: 7.4%
RAW macrophages
  photosensitivity (photosensitizer ranking): best photosensitizers amongst the Ru-porphyrin compounds

## [Ru4(η^6-C6H6)4(TPP)Cl8] [Compound 1]
[1]
  fluorescence quantum yield φf: 6.1%
RAW macrophages
  photosensitivity (photosensitizer ranking): best photosensitizers amongst the Ru-porphyrin compounds

## [Ru4(η^6-C6Me6)4(TPP)Cl8] [Compound 4]
[1]
  fluorescence quantum yield φf: 7.3%

## [Ru4(η^6-p-Pr^iC6H4Me)4(TPP)Cl8] [Compound 3]
[1]
  fluorescence quantum yield φf: 7.9%
